Structures are written as SMILES.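 Interpolation was linear, between the two tested concentrations surrounding the appropriate level; five concentrations were tested over 48 hours in 96-well plates. GI50: concentration for 50% inhibition of growth. TGI denotes the concentration required for complete inhibition of growth.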 Some results are limits rather than exact numbers.

In PubChem BioAssay (NCI) one finds GI50 and TGI data, which are given here for three molecules.

Test systems include SF-268 CNS; RXF 393 renal; SF-295 CNS; NCI-H460 lung; CAKI-1 renal; NCI-H23 lung; COLO 205 colon; 786-0 renal; SNB-19 CNS; HL-60(TB) leukemia.
Holding throughout (test): NCI-60 cell line screen, 48 h

Take `N/N=C\c1c2ccccc2c(=O)n2c1oc1ccccc12`: the GI50 was 15.9 µM in the experiment on SF-268 CNS; 20 µM in the experiment on RXF 393 renal; 2610 nM in the experiment on SF-295 CNS; 5.47 µM in the experiment with NCI-H460 lung; 14.2 µM in the experiment with CAKI-1 renal; 15.7 µM in the experiment on NCI-H23 lung. Further, the GI50 with COLO 205 colon was 18.3 µM; in the experiment with 786-0 renal it was 26.7 µM; with SNB-19 CNS it was 17.8 µM; with HL-60(TB) leukemia, 21.1 µM. In addition, the TGI worked out at 30.4 µM in the experiment on SF-268 CNS; 52.5 µM in the experiment with RXF 393 renal; 12.3 µM in the experiment with SF-295 CNS; 18.4 µM in the experiment on NCI-H460 lung; 27.3 µM in the experiment on CAKI-1 renal; 29.9 µM in the experiment with NCI-H23 lung. In addition, the TGI in the experiment on COLO 205 colon was found to be 34.8 µM; in the experiment on 786-0 renal it was 61.7 µM; with SNB-19 CNS it was 38.7 µM; in the experiment on HL-60(TB) leukemia, 50.9 µM.

Regarding `CC(=O)Oc1cc2c(cc1OC(C)=O)C1(C)CCC2(C)c2cc(OC(C)=O)c(OC(C)=O)cc21`, the TGI in the experiment on SF-268 CNS was above 100 µM; in the experiment with RXF 393 renal it was above 100 µM; in the experiment with SF-295 CNS, 58.8 µM; in the experiment on NCI-H460 lung, 50 µM; in the experiment on CAKI-1 renal, 90.5 µM; in the experiment on NCI-H23 lung, above 100 µM. In addition, the TGI with COLO 205 colon was above 100 µM; in the experiment on 786-0 renal, above 100 µM; in the experiment on SNB-19 CNS, 22.4 µM; in the experiment on HL-60(TB) leukemia, 19.9 µM.

On to `CN(C)Cc1cc(C(F)(F)F)ccc1C(O)(c1ccccc1)c1ccccc1`, for which the TGI in the experiment with SF-268 CNS came to 34.3 µM; with RXF 393 renal, 25.4 µM; in the experiment with SF-295 CNS, 50 µM; in the experiment with NCI-H460 lung, 28.1 µM; in the experiment on CAKI-1 renal, 31.2 µM; in the experiment on NCI-H23 lung, 79.3 µM. Further, the TGI in the experiment with COLO 205 colon worked out at 20.8 µM; with 786-0 renal, 27.7 µM; in the experiment on SNB-19 CNS, 38.4 µM; with HL-60(TB) leukemia it was 24.7 µM.
